Laboratory results as given in patent US10517889B2, “Modulators of SMAD7 expression” (Ionis Pharmaceuticals, Inc., priority 2017, dated 2019).

System: human SMAD7 mRNA
Assay: Dose-dependent inhibition of human SMAD7 mRNA expression in Hep3B cells, comparison with ION 28453 (Example 4)
Assay type: cell-based
Settings: electroporation, approximately 16 hours
Experimental: Cells were plated at a density of 20,000 cells per well and transfected using electroporation with 0.25 μM, 0.74 μM, 2.22 μM, 6.67 μM, or 20.00 μM concentrations of antisense oligonucleotide, as specified in the Tables below. After a treatment period of approximately 16 hours, RNA was isolated from the cells and SMAD7 mRNA levels were measured by quantitative real-time PCR. Primer probe set RTS5062 was used to measure human SMAD7 mRNA levels. SMAD7 mRNA levels were adjusted according to total RNA content, as measured by RIBOGREEN®. Results are presented as percent inhibition of SMAD7 mRNa expression, relative to untreated control cells.
The half maximal inhibitory concentration (IC50) of each oligonucleotide is also presented. […] Several newly designed antisense oligonucleotides had greater potency than the previously disclosed lead compound, ION 28453.

Substance: 798781 (CGTAAGATTCACAGCA; 3-10-3 cEt gapmer, further chemistry not given here) [compound 798781]
- % inhibition of SMAD7 mRNA expression (0.25 μM): 12%
- % inhibition of SMAD7 mRNA expression (0.74 μM): 38%
- % inhibition of SMAD7 mRNA expression (2.22 μM): 66%
- % inhibition of SMAD7 mRNA expression (6.67 μM): 66%
- % inhibition of SMAD7 mRNA expression (20.00 μM): 87%
- IC50 (SMAD7 mRNA): 2000 nM
